Consider eleven compounds from ChEMBL document CHEMBL1201862, “PubChem BioAssay data set” (2004).

Molecules are shown by their SMILES. Counter-ions that a name gives are not always drawn.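 48-hour exposure; five concentrations; linearly interpolated endpoints. GI50: concentration for 50% inhibition of growth.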 The source made the active and inactive calls. Cut-off read from the data, not from the text of the source: active = GI50 up to about 1.1 µM and inactive = higher.

Test systems include SF-539; COLO 205; ACHN; A549; SK-MEL-28; MDA-N; KM12; SN12C; A498; CAKI-1; HCT-15; M14; SK-MEL-2; SF-295; HCC 2998; NCI/ADR-RES; SR; CCRF-CEM; SK-OV-3; RXF 393.
Holding throughout (experiment): inhibition of tumour cell growth, NCI panel, 48 h

Consider `Nc1nc(O)c2c(n1)NCN(CCCN1CCOCC1)C2`, for which the GI50 with SF-539, in the experiment on COLO 205, with ACHN, in the experiment with A549, in the experiment with SK-MEL-28 and with MDA-N was > 100 µM (inactive) in each case. The GI50 with KM12 is > 100 µM (inactive); with SN12C it was > 100 µM (inactive); in the experiment on A498, > 100 µM (inactive); with CAKI-1, > 100 µM (inactive); in the experiment with HCT-15 it was over 100 µM; in the experiment on M14, > 100 µM (inactive). Besides, the GI50 in the experiment with SK-MEL-2, with SF-295, in the experiment with HCC 2998, in the experiment on NCI/ADR-RES and in the experiment on SR was > 100 µM (inactive) each time.

For `COc1ccc(-n2sc3ncc(C)cc3c2=O)cc1`, the GI50 in the experiment on CCRF-CEM is 10.6 µM (inactive); with COLO 205, 16.1 µM (inactive); in the experiment with ACHN it was 18.3 µM (inactive); with SK-OV-3, 39.8 µM (inactive); in the experiment on A549 it was 20.7 µM (inactive); in the experiment with SK-MEL-28, 24.2 µM (inactive). The GI50 with MDA-N was 16.5 µM (inactive); in the experiment on KM12 it was 16.1 µM (inactive); with SN12C, 16.1 µM (inactive); with HCT-15 it was 18.4 µM; in the experiment with M14, 18.7 µM (inactive); in the experiment with SK-MEL-2 it was 21.8 µM (inactive). For the same compound, the GI50 with SF-295 was 50.1 µM (inactive); in the experiment with HCC 2998 it was 62.2 µM (inactive); in the experiment with NCI/ADR-RES, 26.5 µM (inactive); in the experiment on SR, 35.4 µM (inactive).

Consider `Cc1ccccc1Nc1nc(NNC(=O)Cc2ccccc2)nc(NNC(=O)c2ccncc2)n1`, for which the GI50 in the experiment on SF-539, in the experiment on CCRF-CEM, with COLO 205, with SK-OV-3, in the experiment with SK-MEL-28 and with MDA-N was > 10 µM (inactive) throughout. For the same compound, the GI50 with KM12 was > 10 µM (inactive); in the experiment on SN12C, > 10 µM (inactive); with CAKI-1, > 10 µM (inactive); in the experiment on HCT-15, over 10 µM; with M14, > 10 µM (inactive); in the experiment on HCC 2998, > 10 µM (inactive). The GI50 in the experiment on NCI/ADR-RES and in the experiment with SR was > 10 µM (inactive) in each case.

Take `COc1ccc(-c2cc(-c3cc(C)cc(Br)c3O)no2)cc1`: the GI50 is 5.74 µM (inactive) in the experiment on SF-539; > 10 µM (inactive) with CCRF-CEM; > 10 µM (inactive) in the experiment with COLO 205; 8.36 µM (inactive) in the experiment on ACHN; 6.3 µM (inactive) in the experiment with SK-OV-3; 13.3 µM (inactive) in the experiment with A549. The GI50 in the experiment with SK-MEL-28 is 18.7 µM (inactive); in the experiment with MDA-N, 23.6 µM (inactive); in the experiment on KM12 it was 22.2 µM (inactive); in the experiment on SN12C it was 7.59 µM (inactive); in the experiment with A498, 3.03 µM (inactive); in the experiment with CAKI-1 it was 6.98 µM (inactive). The GI50 with HCT-15 is 24.1 µM; with M14, 25.6 µM (inactive); in the experiment on SK-MEL-2, 22.2 µM (inactive); with SF-295, 3.45 µM (inactive); with NCI/ADR-RES, 7.67 µM (inactive); in the experiment on SR, 67.5 µM (inactive).

For the compound `COC(=O)/C=C/c1ccc2nncnc2c1.COC(=O)/C=C\c1ccc2nncnc2c1`, the GI50 is 31.9 µM (inactive) in the experiment on SF-539; > 100 µM (inactive) in the experiment on CCRF-CEM; 21.6 µM (inactive) in the experiment with COLO 205; > 100 µM (inactive) in the experiment with ACHN; > 100 µM (inactive) in the experiment on SK-OV-3; 21.2 µM (inactive) in the experiment on A549. For the same compound, the GI50 in the experiment on SK-MEL-28 is 43.8 µM (inactive); with MDA-N, 20.9 µM (inactive); in the experiment on KM12, 31.6 µM (inactive); with SN12C it was > 100 µM (inactive); with A498 it was 71.8 µM (inactive); in the experiment with CAKI-1, > 100 µM (inactive). The GI50 was 29 µM in the experiment with HCT-15; 21 µM (inactive) in the experiment with M14; 48.6 µM (inactive) in the experiment on SK-MEL-2; 23.4 µM (inactive) with SF-295; 62.4 µM (inactive) in the experiment with NCI/ADR-RES; 56.9 µM (inactive) with SR.

For the compound `CC(C)(C)OC(=O)NC(Cc1ccc(OC(C)(C)C)cc1)C(=O)N[C@H]1CC[C@H](C(=O)O)C1` (some centres not stated), the GI50 in the experiment with SF-539, in the experiment with CCRF-CEM, in the experiment with COLO 205, in the experiment on ACHN, in the experiment with SK-OV-3 and in the experiment with A549 was > 100 µM (inactive) in each case. In addition, the GI50 was > 100 µM (inactive) in the experiment with SK-MEL-28; > 100 µM (inactive) in the experiment with MDA-N; > 100 µM (inactive) in the experiment with KM12; > 100 µM (inactive) with SN12C; > 100 µM (inactive) in the experiment on A498; over 100 µM with HCT-15. Besides, the GI50 with M14, with SK-MEL-2, in the experiment on SF-295, with HCC 2998, in the experiment with NCI/ADR-RES and with SR was > 100 µM (inactive) in each case.

As for `Cn1c2c(c3ccccc31)CCN1C(=O)C3SC21C1C(=O)N(c2ccccc2)C(=O)C31` (configuration not stated), the GI50 is 39.7 µM (inactive) in the experiment with SF-539; 41.8 µM (inactive) with COLO 205; 33 µM (inactive) in the experiment with ACHN; > 100 µM (inactive) in the experiment on SK-OV-3; > 100 µM (inactive) in the experiment with A549; 25.4 µM (inactive) in the experiment on SK-MEL-28. In addition, the GI50 in the experiment on MDA-N is > 100 µM (inactive); in the experiment with KM12, > 100 µM (inactive); with RXF 393, > 100 µM (inactive); in the experiment on SN12C, > 100 µM (inactive); with A498, 26.4 µM (inactive); in the experiment with CAKI-1, > 100 µM (inactive). The GI50 in the experiment with HCT-15 was over 100 µM; in the experiment on M14 it was > 100 µM (inactive); in the experiment on SK-MEL-2, 0.0256 µM (active); in the experiment on SF-295 it was > 100 µM (inactive); with NCI/ADR-RES, > 100 µM (inactive); in the experiment on SR, 35.3 µM (inactive).

As for `O=C(SC1=NCCN1)c1cccc2ccccc12`, the GI50 in the experiment on SF-539 is > 100 µM (inactive); in the experiment with CCRF-CEM it was 21.8 µM (inactive); with COLO 205, > 100 µM (inactive); in the experiment on ACHN it was 66.8 µM (inactive); in the experiment with SK-OV-3, 44.5 µM (inactive); in the experiment with A549, > 100 µM (inactive). For the same compound, the GI50 was 96.2 µM (inactive) in the experiment on SK-MEL-28; 76 µM (inactive) in the experiment with MDA-N; 37 µM (inactive) in the experiment with KM12; 53.7 µM (inactive) in the experiment on RXF 393; 64.6 µM (inactive) in the experiment with SN12C; > 100 µM (inactive) in the experiment with A498. The GI50 in the experiment on CAKI-1 was > 100 µM (inactive); with HCT-15, 48.6 µM; in the experiment on M14, 67.6 µM (inactive); in the experiment with SK-MEL-2 it was > 100 µM (inactive); in the experiment with SF-295 it was 36.8 µM (inactive); in the experiment with HCC 2998, > 100 µM (inactive). For the same compound, in the experiment with NCI/ADR-RES, the GI50 was 31.6 µM (inactive).

Turning to `O=C(O)COc1cc(-c2ccccc2)nc2ccc(F)cc12`, the GI50 in the experiment on SF-539, with CCRF-CEM, with COLO 205, with ACHN, with SK-OV-3 and in the experiment on A549 was > 100 µM (inactive) in each case. Moreover, the GI50 with SK-MEL-28, in the experiment on MDA-N, with KM12, with SN12C, in the experiment with A498 and in the experiment with CAKI-1 was > 100 µM (inactive) in each case. Also, the GI50 was over 100 µM in the experiment on HCT-15; > 100 µM (inactive) in the experiment on M14; > 100 µM (inactive) in the experiment with SK-MEL-2; > 100 µM (inactive) in the experiment on SF-295; 98.6 µM (inactive) in the experiment on HCC 2998; > 100 µM (inactive) in the experiment on NCI/ADR-RES. Besides, in the experiment with SR, the GI50 was > 100 µM (inactive).

Consider `C=C1C[C@@H]2O[C@H]3[C@H]4[C@@H](C[C@@H](C)[C@@H](OC(C)=O)[C@H]42)[C@@H](C)CO[C@@]3(C)[C@H](OC(=O)CCCCCCC)CC1=O`, for which the GI50 with SF-539 was 22 µM (inactive); in the experiment on CCRF-CEM, 5.85 µM (inactive); in the experiment with COLO 205, 13.9 µM (inactive); in the experiment with ACHN, 16 µM (inactive); with A549, 18.4 µM (inactive); in the experiment with SK-MEL-28, 14.9 µM (inactive). Also, the GI50 is 16.8 µM (inactive) with MDA-N; 12.1 µM (inactive) in the experiment on KM12; 16 µM (inactive) in the experiment with SN12C; 17.2 µM (inactive) in the experiment with A498; 19.4 µM (inactive) in the experiment with CAKI-1; 14.1 µM in the experiment with HCT-15. Further, the GI50 is 15.6 µM (inactive) in the experiment on M14; 19.2 µM (inactive) in the experiment on SK-MEL-2; 19.5 µM (inactive) in the experiment with SF-295; 17 µM (inactive) with HCC 2998; 17.9 µM (inactive) in the experiment with NCI/ADR-RES; 16 µM (inactive) with SR.

For the compound `CN1[C@@H]2C[C@@H](OC(=O)[C@H](CO)c3ccccc3)C[C@H]1[C@@H]1O[C@@H]12` [SCOPOLAMINE HYDROBROMIDE], the GI50 with CCRF-CEM, in the experiment on COLO 205, in the experiment with ACHN, in the experiment on SK-OV-3, with A549 and in the experiment with SK-MEL-28 was > 100 µM (inactive) throughout. In addition, the GI50 in the experiment with MDA-N, in the experiment with KM12, with RXF 393, with SN12C, in the experiment on A498 and with CAKI-1 was > 100 µM (inactive) throughout. Moreover, the GI50 in the experiment with HCT-15 was over 100 µM; with M14, > 100 µM (inactive); in the experiment with SK-MEL-2 it was > 100 µM (inactive); with NCI/ADR-RES, > 100 µM (inactive); in the experiment on SR, > 100 µM (inactive).
